Consider 12 compounds from PubChem BioAssay (NCI).

Among the test systems are CCRF-CEM leukemia; NCI-H23 lung; NCI-H522 lung; OVCAR-8 ovarian; SF-295 CNS; SK-MEL-2 melanoma; SNB-75 CNS; SW-620 colon; U251 CNS; HOP-92 NSCLC.
What all share (assay): growth of human tumour cells (NCI), 48 h

SMILES strings stand for the structures.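 Test compounds were applied to cells in 96-well plates for 48 hours at 5 doses. The concentration for 50% growth inhibition is given as GI50. TGI marks complete inhibition of growth.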 Where only a bound is given, the exact number is not on record here.

Consider `COc1cc(/C=C/c2cc(C(F)(F)F)[nH]c(=O)n2)ccc1OCc1ccccc1F`, for which the GI50 is 3.94 µM with CCRF-CEM leukemia; 10.5 µM with NCI-H23 lung; 5.62 µM with NCI-H522 lung; 8.85 µM in the test on OVCAR-8 ovarian; 5.07 µM in the test on SF-295 CNS; 12.1 µM in the test on SK-MEL-2 melanoma. The GI50 with SNB-75 CNS was 21 µM; with SW-620 colon, 7.97 µM; in the test on U251 CNS, 5.23 µM. The TGI in the test with CCRF-CEM leukemia is 26.3 µM; in the test on NCI-H23 lung it was 31.9 µM; with NCI-H522 lung it was 20.4 µM; in the test on OVCAR-8 ovarian, 48.8 µM; in the test on SF-295 CNS, 22 µM; in the test with SK-MEL-2 melanoma, 28.2 µM. Moreover, the TGI is 56.7 µM in the test on SNB-75 CNS, 28.3 µM in the test with SW-620 colon and 18.5 µM with U251 CNS.
As to `c1cnc2c(c1)-n1cccc1C1(CCSCC1)NN2`, the TGI in the test on CCRF-CEM leukemia, in the test on NCI-H522 lung, in the test on OVCAR-8 ovarian, in the test with SF-295 CNS, with SK-MEL-2 melanoma and with SNB-75 CNS was > 100 µM throughout. For the same compound, the TGI in the test with SW-620 colon was > 100 µM.
Consider `CCCC(=O)c1c(NOC2OC(COC(C)=O)C(OC(C)=O)C(OC(C)=O)C2OC(C)=O)nc(OC)n(C)c1=O` (centres undefined), for which the TGI in the test with CCRF-CEM leukemia, with NCI-H23 lung, with NCI-H522 lung, in the test on OVCAR-8 ovarian, with SF-295 CNS and in the test with SK-MEL-2 melanoma was > 100 µM each time. Besides, the TGI in the test on SNB-75 CNS, in the test with SW-620 colon and with U251 CNS was > 100 µM in each case.
Take `Cc1nn(C(=O)c2ccccc2O)c2c1C(c1ccccc1)SC(N)=N2` (centres undefined): the TGI was 8.15 µM with CCRF-CEM leukemia; > 10 µM in the test on NCI-H23 lung; > 10 µM in the test on NCI-H522 lung; > 10 µM in the test with OVCAR-8 ovarian; > 10 µM in the test on SF-295 CNS; > 10 µM with SK-MEL-2 melanoma. Moreover, the TGI with SW-620 colon and in the test on U251 CNS was > 10 µM each time.
Turning to `Cc1c(CCCl)c(=O)n2c([nH]c3ccccc32)c1C#N`, the TGI in the test with CCRF-CEM leukemia was determined as 2.5 µM; with HOP-92 NSCLC, 2.82 µM; in the test with NCI-H23 lung, 3.49 µM; in the test on OVCAR-8 ovarian, 3.15 µM; in the test with SF-295 CNS it was 3.48 µM; in the test with SK-MEL-2 melanoma, 4.46 µM. Besides, the TGI in the test on SNB-75 CNS was 2.78 µM; with SW-620 colon, 2.27 µM; with U251 CNS it was 3.45 µM.
Consider `COc1cc([C@H](C)c2ccc3ccccc3c2)cc(OC)c1OC`, for which the GI50 was 0.274 µM with CCRF-CEM leukemia; 0.908 µM in the test on HOP-92 NSCLC; 0.696 µM with NCI-H23 lung; 0.376 µM in the test on NCI-H522 lung; 0.499 µM in the test on OVCAR-8 ovarian; 0.201 µM with SF-295 CNS. Further, the GI50 in the test with SK-MEL-2 melanoma is 0.527 µM; in the test on SW-620 colon, 0.0974 µM; in the test with U251 CNS it was 0.333 µM. The TGI in the test with CCRF-CEM leukemia was > 100 µM; in the test with HOP-92 NSCLC it was 53 µM; with NCI-H23 lung, > 100 µM; with NCI-H522 lung, 28.3 µM; in the test with OVCAR-8 ovarian, 65.1 µM; in the test with SF-295 CNS, > 100 µM. Further, the TGI was 65.4 µM with SK-MEL-2 melanoma, > 100 µM with SW-620 colon and 21.1 µM in the test with U251 CNS.
Regarding `Nc1ccc(C(=O)N/C(=C\C=C\c2ccco2)c2nc3[nH]c(=S)[nH]c(=O)c3[nH]2)cc1`, the TGI with CCRF-CEM leukemia, with HOP-92 NSCLC, in the test on NCI-H23 lung, in the test on NCI-H522 lung, with OVCAR-8 ovarian and in the test on SF-295 CNS was > 100 µM in each case. The TGI with SK-MEL-2 melanoma, in the test on SW-620 colon and with U251 CNS was > 100 µM in each case.
Regarding `O=C(Nc1ccccc1)c1ccc(Cl)c([N+](=O)[O-])c1`, the TGI with CCRF-CEM leukemia was 28.7 µM; in the test on NCI-H23 lung, 63.6 µM; in the test with NCI-H522 lung, 32 µM; in the test with OVCAR-8 ovarian, 39.6 µM; with SF-295 CNS, > 100 µM; in the test on SK-MEL-2 melanoma it was 32.4 µM. For the same compound, the TGI is 71.6 µM in the test on SNB-75 CNS, 34 µM with SW-620 colon and > 100 µM in the test on U251 CNS.
With `C=CCNC(=S)N1CC(C)C(=O)Nc2ccccc21` (centres undefined), the TGI in the test on CCRF-CEM leukemia, in the test on NCI-H23 lung, in the test with NCI-H522 lung, in the test with OVCAR-8 ovarian, with SF-295 CNS and in the test on SK-MEL-2 melanoma was > 100 µM in each case. The TGI in the test on SNB-75 CNS, with SW-620 colon and in the test on U251 CNS was > 100 µM each time.
For `CC(=O)NC1=N/C(=C/c2cc([N+](=O)[O-])ccc2O)CN1C`, the TGI with HOP-92 NSCLC, in the test on NCI-H23 lung, with OVCAR-8 ovarian, in the test with SF-295 CNS, with SK-MEL-2 melanoma and in the test on SNB-75 CNS was > 100 µM each time. For the same compound, the TGI in the test on SW-620 colon and in the test on U251 CNS was > 100 µM throughout.
With `CC1(C)C2CC(c3ccncc3)ON2C(C)(C)N1O` (centres undefined), the TGI with CCRF-CEM leukemia, with HOP-92 NSCLC, in the test with NCI-H23 lung, with OVCAR-8 ovarian, with SF-295 CNS and in the test with SK-MEL-2 melanoma was > 100 µM each time. The TGI in the test on SNB-75 CNS, with SW-620 colon and with U251 CNS was > 100 µM each time.
As to `COc1ccc2c(c1)sc1nc(-c3ccccc3)c(-c3ccsc3)n12`, the GI50 with HOP-92 NSCLC was 9.89 µM; in the test on NCI-H23 lung, 4 µM; in the test on NCI-H522 lung, 2.99 µM; in the test with OVCAR-8 ovarian, 5.95 µM; in the test on SF-295 CNS, 3.06 µM; in the test with SK-MEL-2 melanoma it was 9.72 µM. In addition, the GI50 was 3.84 µM with SW-620 colon and 3.72 µM in the test with U251 CNS. For the same compound, the TGI in the test on HOP-92 NSCLC is > 100 µM; in the test on NCI-H23 lung it was > 100 µM; in the test with NCI-H522 lung, 36.8 µM; in the test on OVCAR-8 ovarian, > 100 µM; in the test on SF-295 CNS it was > 100 µM; in the test on SK-MEL-2 melanoma, > 100 µM. For the same compound, the TGI with SW-620 colon and in the test with U251 CNS was > 100 µM throughout.
